Target: T1, hSP-A (Homo sapiens, UniProt Q8IWL1+Q8IWL2)
T1 construct: Human PAP patient, BAL isolated; from tissue; host or cells: bronchoalveolar lavage fluid of a patient with pulmonary alveolar proteinosis
Test: Collectin-based binding assay (immobilized hSP-A, WGA-AlexaFluor488 detection)
Conditions: for normalized fluorescence of WGA bound to GAG on immobilized hSP-A: absence of calcium (Fig. 4B, C); for binding of immobilized hSP-A to GAG (normalized fluorescence): presence of 5 mM calcium (Fig. 4B, C)
Method: hSP-A was immobilized in a black 96-well plate (655076, Greiner BIO-One, Frickenhausen, Germany) by coating the plate with a specific anti-SP-A antibody (Abcam, abab190087, Cambridge, UK) at a concentration of 0.5 µg/mL in coating buffer [0.1 M NaHCO3 buffer (pH 9.6)] at 4°C overnight. Afterward, the plate was blocked with 100 µL Synblock (Bio-Rad, BUF034B, California) for 2 h at room temperature. Then, hSP-A was added at 14 ng/well and incubated with the antibody for 1 h at room temperature in washing buffer (5 mM Tris, 0.9% NaCl, and 0.05% Tween-20) to immobilize it. After washing with washing buffer, different concentrations of HA or HS ranging from 10 mM to 1 nM were added in either washing buffer without calcium or with 5 mM CaCl2 and incubated with the immobilized protein for 1 h at room temperature. The following washing steps were performed with washing buffer containing no calcium or 5 mM CaCl2. To detect the GAGs bound to the protein, an AlexaFluor488-conjugated wheat germ agglutinin (WGA, W11261, Invitrogen, Massachusetts) was added at 50 µg/mL in washing buffer containing no calcium or 5 mM CaCl2 and incubated it for 30 min at room temperature protected from light. After washing with washing buffer with or without calcium, 100 µL of washing buffer without calcium was added to read the fluorescence of the bound WGA with an excitation filter at 485 nm and an emission filter at 520 nm in a plate reader (FLUOstar Omega, BMG Labtech, Ortenberg, Germany).
The data of the binding inhibition assay were analyzed in GraphPad Prism 9.5.1 using the “normalize” function and fitting to the nonlinear regression dose-response inhibition. The best fitting was achieved using the “[Inhibitor] versus response–variable slope (four parameters)” model. The fluorescence values from the collectin-based binding assay were normalized using the same “normalize” function in GraphPad, and the statistical test used was the “non-parametric Kruskal-Wallis” test. The statistical test used for the DMMB assay for GAG quantification was also the “non-parametric Kruskal-Wallis” test.

T1 sequence (Q8IWL2 21-248): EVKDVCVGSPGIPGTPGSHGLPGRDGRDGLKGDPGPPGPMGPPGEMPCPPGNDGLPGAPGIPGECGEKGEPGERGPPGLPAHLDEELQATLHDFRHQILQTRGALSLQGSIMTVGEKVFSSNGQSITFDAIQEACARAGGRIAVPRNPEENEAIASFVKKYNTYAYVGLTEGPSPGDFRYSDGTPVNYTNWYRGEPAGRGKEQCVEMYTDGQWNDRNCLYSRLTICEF
T1 sequence (Q8IWL1 21-248): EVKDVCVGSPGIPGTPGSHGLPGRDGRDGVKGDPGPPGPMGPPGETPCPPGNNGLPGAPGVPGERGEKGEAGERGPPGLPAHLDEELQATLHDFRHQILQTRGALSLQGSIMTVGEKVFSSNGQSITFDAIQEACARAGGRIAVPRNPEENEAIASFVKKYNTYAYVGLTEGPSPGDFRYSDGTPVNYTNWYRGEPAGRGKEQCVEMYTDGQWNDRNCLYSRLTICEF

Row | Substance | normalized fluorescence of WGA bound to GAG on immobilized hSP-A | binding of immobilized hSP-A to GAG (normalized fluorescence)
1 | hyaluronic acid sodium salt [HA] | no significant increase in fluorescence | able to bind
2 | heparan sulfate sodium [HS] | increased fluorescence | able to bind
